Measured values reported in patent publication US8748097B1, “Identification of agents for treating calcium disorders and uses thereof” (President and Fellows of Harvard College, priority 2011, dated 2014).
Where two headings read alike, the source gives them in different places.

Key:
NFATc1 mRNA = test: A23187-induced NFATc1 expression; type: cell-based; details: C2orf28 deficient cells vs control; 1 μM A23187, 12 hours
Description: FIG. 13. A23187-induced NFATc1 Expression. Control and C2orf28 deficient cells were treated for 12 hours with 1 μM A23187. After 12 hours, relative levels of NFATc1 mRNA expression were measured.
Total RNA was isolated and reverse-transcription was performed from cells grown in the indicated conditions. The resulting cDNA was diluted in DNase-free water (1:20) followed by quantification by real-time PCR. Data is expressed as the ratio between the expression of the target gene to the housekeeping gene, 18s. Each treated sample was normalized to the level of the vehicle controls of the same cell type. The following primers were used for quantitative real-time PCR: […]

[1] = tested on: RANKL mRNA in ST-2 osteoblast cells
Description: (§1) GFP positive cells were treated with a shRNA designed to target and disrupt GFP expression (transfection control), while wild-type cells were treated with one of two shRNA constructs (TBONE—1 and TBONE—2) designed to target and disrupt expression of Apr3.

RAW 264.7 macrophages [2] = tested on: RAW 264.7 macrophages
Description: as §1

HDJ-2 prenylation = details: indicated dose of Alendronate, 72 hours
Description: (§2) FIG. 8. Effect of Nitrogenous Bisphosphonates on Prenylation. Cells containing (WT) or lacking C2orf28 (C2orf28_GT2) were treated with Alendronate at the indicated dose ((−) indicates no Alendronate). After 72 hours the cells were analyzed by immunoblotting for the indicated proteins.
(§3) Therefore, to determine whether C2orf28 is involved with NBPs mediated protein prenylation, the inventors' monitored the prenylation of several known prenylated proteins including the heat shock protein DnaJ (Hsp40) homolog, HDJ-2, and the Ras family GTPase, Rapla. Cells containing or lacking C2orf28 were treated with the indicated dose of Alendronate for 72 hours then lysed and analyzed by immunoblotting for the indicated proteins.
(§4) Cells were pelleted by centrifugation at 9,000 rpm for 30 seconds, rinsed once with ice-cold PBS and lysed with Triton-X 100 containing lysis buffer (40 mM HEPES [pH 7.4], 2 mM EDTA, 150 mM NaCl, 50 mM NaF, 1% Triton-X 100, and one tablet of EDTA-free protease inhibitors [Roche] per 25 ml). The soluble fractions of cell lysates were isolated by centrifugation at 13,000 rpm for 10 minutes in a microcentrifuge. Lysate protein concentrations were normalized by Bradford assay (Bio-Rad). Proteins were then denatured by the addition of sample buffer and by boiling for 5 minutes, resolved using 4%-20% SDS-PAGE (Invitrogen), and analyzed by immunoblotting.

Rapla prenylation = details: indicated dose of Alendronate, 72 hours
Description: as §2, §3, §4

MC3T3-e1 cells = tested on: MC3T3-e1 cells
Description: FIG. 15. Basal and NBP-potentiated osteoblastic gene expression. shNA-mediated TBONE knockdown (TBONE—1 and TBONE—2) and transfection control (GFP) cells were treated with 10 nM Alendronte or vehicle and analyzed using real-time RT-PCR for mRNA expression of (A) TBONE, (B) osteocalcin (OC), and (C) bone sialoprotein (BSP).
Since NBPs and calcium potentially play an important role in regulating osteoblast function, studies were performed to evaluate the role of TBONE in osteoblast differentiation. For the experiment, wild-type and GFP positive MC3T3-e1 cells were transiently transfected with small-hairpin RNA (shRNA). GFP positive cells were treated with a shRNA designed to target and disrupt GFP expression (transfection control), while wild-type cells were treated with one of two shRNA constructs (TBONE—1 and TBONE—2) designed to target and disrupt expression of Apr3. The cells were then subjected to conditions for promoting osteoblast differentiation, 50 μg/ml ascorbic acid and 10 mM B-glycerophosphate for 2 weeks, and analyzed for extracellular calcium deposition using Alizarin Red or phosphate deposition using the Von Kossa method.
(§5) Briefly, GFP control and TBONE knockdown cells were generated and subjected to differentiation as described above. Following the two week incubation, cells were treated with 10 nM Alendronate (exemplary NBP) or vehicle and analyzed by real-time RT-PCR using TBONE, OC and BSP gene specific oligonucleotide primers (FIG. 15). Alkaline phosphatase activity was measured using a colorimetric based assay designed to indicate ALPL activity by changing color following the dephosphorylation of p-nitrophenyl phosphate (pNPP) (FIG. 16).

KBM7 cells = tested on: KBM7 cells
Description: (§6) All measurements were performed in quadruplicate.
as §6

[3] = biological target: HA tagged C2orf28 variant 2 (Homo sapiens, UniProt Q6UW56); details: MC3T3-E1 pre-osteoblasts expressing HA tagged C2orf28 variant 2; 7504 fluorophore conjugated Alendronate
Sequence of HA tagged C2orf28 variant 2 (Q6UW56 1-284 isoform Q6UW56-3): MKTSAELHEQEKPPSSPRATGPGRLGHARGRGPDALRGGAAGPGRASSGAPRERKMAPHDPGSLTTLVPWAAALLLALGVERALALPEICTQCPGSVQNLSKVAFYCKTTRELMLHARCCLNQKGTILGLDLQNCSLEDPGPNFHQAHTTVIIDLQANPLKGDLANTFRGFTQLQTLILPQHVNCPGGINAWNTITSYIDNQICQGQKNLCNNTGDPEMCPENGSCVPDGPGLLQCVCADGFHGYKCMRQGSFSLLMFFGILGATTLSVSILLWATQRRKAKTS
Description: Sub-cellular Localization. […] Cells were processed in an immunofluorescence assay.
Following incubation, the cells were washed, and processed in an immunofluorescence assay to detect HA and Alendronate, along with DAPI to visualize DNA content.
25,000-100,000 cells were plated on fibronectin-coated glass coverslips, fixed with 4% paraformaldehyde, and permeabilized with 0.2% Triton X-100. Permeabilized cells were blocked in 0.25% BSA PBS, incubated with primary antibody in blocking buffer overnight at 4° C. and subsequently incubated with secondary antibodies (diluted in blocking buffer 1:1000) for one hour at room temperature. 2-4×PBS washes were used in between all preceding steps. The coverslips were mounted on glass slides using Vectashield containing DAPI (Vector Laboratories) and imaged with 63× objective using epifluorescence microscopy.

[4] = tested on: cells containing or lacking C2orf28; details: C2orf28 deficient vs C2orf28-complemented cells; 75 μM fluorophore conjugated H^3-labeled Alendronate plus 60 μM cold, 60 hours
Description: The volume was made up to 1 ml with distilled water and the solution incubated for 2 hours at room temperature with mixing.

[5] = tested on: alkaline phosphatase (ALPL); details: TBONE deficient cells vs GFP control; 10 nM Alendronate
Description: as §5

HEK-293T = HEK-293T with C2orf28 depletion using RNAi; data not shown
RAW 264.7 macrophages [6] = test: RANKL-mediated induction of TRAP activity in RAW 264.7 macrophages; type: cell-based; details: TBONE knockdown RAW 264.7 macrophages; 50 ng/ml RANKL, 5 days
Text: In order to determine if TBONE plays a role in directly regulating osteoclastogensis, TBONE was knockdown in macrophages to evaluate its potential effect on RANKL stimulated differentiation; by monitoring lineage specific surface marker expression of the calcitonin receptor (CALCR), a well-established indicator of osteoclast activity (J. Lam et al., (2000) J Clin Invest: 106, 1481; D. L. Lacey et al., (1998), Cell: 93, 165; and C. Minkin, (1982), Calcif Tissue Int: 34, 285; all of which are hereby incorporated by reference). Briefly, wild-type and GFP positive RAW 264.7 macrophages cells were transiently transfected with shRNA to knockdown GFP and Arp3 as described above. The cells were treated with 50 ng/ml RANKL for 5 days. […] Second, cells were analyzed for tartrate-resistant acid phosphatase (TRAP) activity.

[7] = C2orf28 deficient cells (C2orf28_GT2)
[8] = TBONE deficient cells vs GFP control, 10 nM Alendronate

## CNc1ccc2oc(C[C@H]3O[C@@]4(CC[C@H]3C)O[C@H]([C@H](C)C(=O)c3ccc[nH]3)[C@H](C)C[C@H]4C)nc2c1C(=O)O [A23187]
NFATc1 mRNA
  A23187-induced NFATc1 gene expression: defective

## NCCCC(O)(P(=O)(O)O)P(=O)(O)O [Alendronate]
[1]; wild-type ST-2 cells, 100 nM Vitamin D plus increasing concentration of Alendronate, vs control
  RANKL mRNA induction by Vitamin D: impaired RANKL mRNA induction by Vitamin D, in a dose dependent fashion
RAW 264.7 macrophages [2]; ST-2 cells treated with 100 nM Vitamin D and Alendronate, co-cultured with RAW 264.7 macrophages
  Vitamin D stimulated osteoclastogenesis (TRAP activity): reduced TRAP activity
HDJ-2 prenylation; [7]
  HDJ-2 prenylation: no effect
HDJ-2 prenylation; cells containing C2orf28 (WT)
  HDJ-2 prenylation: impaired both HDJ-2 and Rapla prenylation in a dose dependent manner
Rapla prenylation; [7]
  Rapla prenylation: no effect
Rapla prenylation; cells containing C2orf28 (WT)
  Rapla prenylation: impaired both HDJ-2 and Rapla prenylation in a dose dependent manner
MC3T3-e1 cells; GFP control cells, 10 nM Alendronate vs vehicle
  Relative TBONE mRNA expression: increase in relative TBONE expression
MC3T3-e1 cells; [8]
  NBP-stimulated gene expression of bone sialoprotein (BSP): fail to demonstrate an increase in basal or NBP-stimulated gene expression
  NBP-stimulated gene expression of osteocalcin (OC): fail to demonstrate an increase in basal or NBP-stimulated gene expression
MC3T3-e1 cells; TBONE knockdown cells (TBONE—1 and TBONE—2), 10 nM Alendronate
  NBP-stimulated induction of TBONE mRNA: fail to demonstrate a NBP-stimulated induction of TBONE
KBM7 cells; C2orf28_GT2 cells expressing C2orf28 variant 2 lacking the transmembrane domain, 0, 60 or 9004, 72 hours
  Cell viability (cellular ATP, ratio to untreated cells): resistant
KBM7 cells; C2orf28_GT2 cells expressing full-length C2orf28 variant 2, 0, 60 or 9004, 72 hours
  Cell viability (cellular ATP, ratio to untreated cells): sensitive
KBM7 cells; C2orf28 mutant cells with exogenous C2orf28 variant 2 or variant 3, 60 μM, 72 hours
  Cell viability (cellular ATP, ratio to untreated cells): as sensitive to Alendronate as wild-type KBM7 cells
[3]
  Colocalization of Alendronate and C2orf28 co-staining: high degree of colocalization
[4]
  Cellular Alendronate accumulation: altered cellular Alendronate accumulation
[5]
  NBP-stimulated ALPL (alkaline phosphatase activity): fail to demonstrate an increase in basal or NBP-stimulated gene expression
HEK-293T
  Anti-proliferative effects: strong resistance

## Vitamin D
[1]; TBONE knockdown ST-2 cells (TBONE—1 and TBONE—2) vs GFP control, 100 nM Vitamin D
  RANKL mRNA induction by Vitamin D: impaired RANKL mRNA induction
RAW 264.7 macrophages [2]; TBONE knockdown ST-2 cells co-cultured with RAW 264.7 macrophages, 100 nM Vitamin D
  Vitamin D stimulated osteoclastogenesis (TRAP activity): largely blocked

B1: RANKL: regulatory molecule stimulating osteoclast differentiation and function (protein, UniProt O14788 140-317, looked up)
Tumor necrosis factor ligand …: IRAEKAMVDGSWLDLAKRSKLEAQPFAHLTINATDIPSGSHKVSLSSWYHDRGWAKISNMTFSNGKLIVNQDGFYYLYANICFRHHETSGDLATEYLQLMVYVTKTSIKIPSSHTLMKGGSTKYWSGNSEFHFYSINVGGFFKLRSGEEISIEVSNPSLLDPDQDATYFGAFKVRDID
RAW 264.7 macrophages [6]
  RANKL-mediated TRAP activity: strongly impairs
